± gives the standard deviation.
Assays:
[1] = biological target: Toxoplasma gondii RH tachyzoites; test: EC50 growth inhibition (48 h luciferase)
[2] = tested on: Plasmodium falciparum 3D7; test: % inhibition of schizont-to-ring transition vs DMSO; higher = more inhibition
How it was run: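 Tightly synchronised P. falciparum schizonts (about 40–42 hours post-invasion, 1% parasitemia, 2.5% hematocrit, AlbuMAX-supplemented RPMI) were exposed to compound at 1, 3 or 10 µM, with vehicle and positive controls. Cells were glutaraldehyde-fixed, Triton-permeabilised, stained with Hoechst 33342 and counted by flow cytometry (at least 100,000 events). Schizont-to-ring transition inhibition is new ring formation relative to vehicle controls, averaged over three experiments.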

[3] = tested on: Plasmodium falciparum 3D7; test: EC50 growth inhibition (60 h, SYBR Green); conditions: stage: ring-stage start
[4] = tested on: Toxoplasma gondii RH tachyzoites; test: % growth inhibition vs DMSO (48 h luciferase); higher = more inhibition; conditions: 10 µM
[5] = tested on: Toxoplasma gondii RH tachyzoites; test: plaque count per well; higher = less inhibition; extreme values may be limits of the assay; conditions: 10 µM; 8-10 days
Method: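 T. gondii RH tachyzoites expressing firefly luciferase were grown in HFF monolayers for 48 h with compound. % growth inhibition at 10 µM and EC50 (2-fold dilutions from 10 µM) were read by luminescence relative to 1% DMSO; EC50 listed as 10 (not determined, <80% inhibition) is left out. Plaque assays: 50 tachyzoites per well with 10 µM compound for 8-10 days, giving plaque count and area by crystal violet/ImageJ. Egress: median time to egress after 1 µM A23187 ionophore following 24 h of 10 µM compound (DMSO ~1.8 min; >10 = no egress within 10 min).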
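Wherever % growth inhibition vs DMSO (48 h luciferase) is given: tested in triplicate wells of 96-well plates on confluent HFF monolayers, with 1% DMSO wells as negative control in four replicates.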

Row | Structure (SMILES) | EC50 growth inhibition [1] [nM] | % inhibition of schizont-to-ring transition ([2]; 1 µM) [%] | % inhibition of schizont-to-ring transition ([2]; 3 µM) [%] | % inhibition of schizont-to-ring transition ([2]; 10 µM) [%] | EC50 growth inhibition [3] [nM] | % growth inhibition [4] [%] | plaque count per well [5]
1 | O=C1c2ccc3c4c(ccc(c24)C(=O)N1CCCCO)C(=O)N(CCCCO)C3=O | 421 | 9.23 | 16.9 | 64.2 | 4810 | 99.55 ± 0.29 | –
2 | COc1ccc(/C=C2/SC(Nc3ccc(F)cc3)=NC2=O)c(OC)c1 | 7.69 | 23.5 | 31.5 | 54.2 | 880 | 92 ± 2.3 | –
3 | CC(C)(C)C(=O)Nc1ccc(C(=O)Nc2cccc(-c3nc4ccccc4[nH]3)c2)cc1 | 2080 | 22.8 | 32.4 | 56.2 | 1820 | 88.4 ± 1.2 | –
4 | COc1cccc(NC(=O)Cn2c(C)c(C#N)c3ccccc32)c1 | 905 | 56.8 | 75.8 | 77.4 | 231 | 94.39 ± 0.68 | –
5 | O=C(Nc1ccc(CN2CCOCC2)cc1)c1ccc(-c2cc(Cl)ccc2Cl)o1 | 5590 | 5.81 | 22.5 | 42.6 | 1230 | 81.1 ± 4.3 | –
6 | COc1ccc(Nc2cc(C)nc(NCc3ccccc3)n2)cc1 | 653 | 30.2 | 34.6 | 60 | 115 | 98.67 ± 0.18 | –
7 | CCOC(=O)c1cnc2ccc(OC)cc2c1NCc1ccccc1 | 1400 | 42 | 45.3 | 59.1 | 6780 | 97.7 ± 1.4 | –
8 | Cc1cc(N2CCCC2)nc(Nc2ccc(NC(=O)CCc3ccccc3)cc2)n1 | 102 | 55.6 | 62.1 | 67.5 | 139 | 96.07 ± 0.93 | –
9 | O=c1c2c([nH]c3ccccc13)CCCC2 | 1040 | 13.7 | 22.2 | 42.9 | 1790 | 89.6 ± 1.1 | –
10 | COCCNC(=O)c1ccc(OC2CCN(Cc3ccc(F)c(F)c3)CC2)c(Cl)c1 | 270 | 10.5 | 23.7 | 52.4 | 1250 | 97.36 ± 0.96 | –
11 | Cc1ccc(S(=O)(=O)c2c(COC(=O)c3cccc(C)c3)c(-c3ccccc3)nn2C)cc1 | 2060 | < 0 | 1.67 | 32.1 | – | 99.44 ± 0.48 | –
12 | COc1ccc(C(=O)NC(c2ccccc2Cl)c2cc(Cl)c3cccnc3c2O)cc1 (centres undefined) | 592 | 13.2 | 31.2 | 57.7 | – | 96.55 ± 0.71 | –
13 | O=[N+]([O-])c1ccc(C=NNc2nc3ccccc3[nH]2)cc1 | – | 29 | 43.8 | 49 | 663 | < 0 | 33
14 | Cc1cccc(Nc2nc(N)c3ccccc3n2)c1 | – | 3.41 | 36.1 | 54.2 | 669 | < 0 | 0
15 | c1ccc(/C2=N/c3ccccc3/N=C(/c3ccccc3)c3ccccc32)cc1 | – | 57.3 | 79.1 | 80.6 | 1580 | < 0 | 0
16 | Cc1ccc(CN2CCC(C(=O)Nc3ccc(-c4cc5ccccc5[nH]4)cc3)CC2)o1 | – | 21.9 | 44.3 | 68.2 | 2170 | < 0 | 38

From the supplement of paper PMC5770543
